Results on 18 compounds are retold here after patent US8268823B2, “Medical use of triazine derivatives” (University of Greenwich, priority 2006, dated 2012).

Data set [1] deals with T1, hERG potassium channel (Homo sapiens, UniProt Q12809).
The target of data set [2] is T1, hERG potassium channel. Briefly: in vitro.
The target of data set [3] is T1, hERG potassium channel. Briefly: inhibition of binding of [3H]astemizole to cell membranes expressing hERG. On the technique in general: hERG is a cardiac potassium channel; its block is linked to QT prolongation.
Data set [4] deals with sodium channel. It is filed as binding, rat.
The target of data set [5] is T2, DiHydroFolate Reductase (DHFR) (Rattus norvegicus, UniProt Q920D2).
T2 construct: from tissue; host or cells: rat liver homogenate supernatant (47,500 x g)
T2 sequence (Q920D2 1-187): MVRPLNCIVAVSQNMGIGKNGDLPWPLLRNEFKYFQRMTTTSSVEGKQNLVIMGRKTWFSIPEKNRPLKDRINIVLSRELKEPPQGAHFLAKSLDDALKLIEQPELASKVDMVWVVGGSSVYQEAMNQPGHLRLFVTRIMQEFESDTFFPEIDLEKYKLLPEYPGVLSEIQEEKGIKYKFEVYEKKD
Put plainly: inhibition of binding of [3H]methotrexate to rat liver homogenate supernatant. The settings on record: for inhibition at 10 µM / inhibition at 99 µM / inhibition at 50 µM: read-out: [3H]methotrexate binding Inhibition (% @ assay conc'n); for inhibition at 99 µM: assay concentration 99 μM; for IC50: rat liver supernatant; for inhibition at 50 µM: assay concentration 50 μM.

In data set [6] the test system is sodium channel. Put plainly: veratrine-evoked uptake of [14C]guanidine into rat forebrain synaptosomes ([14C]guanidine flux). It is filed as biochemical. Conditions: for Hill (uptake of [14C]guanidine): slope.
Data set [7] has as its system 0.4 mm slices of rat hippocampus. Put plainly: hippocampal slice assay: ATP after iodoacetate metabolic insult. Conditions: Rattus norvegicus; for Emax: read-out: Max Protection (% v TTX); for EC50: read-out: hippocampal slice EC50 (μM).
Setting [8] is: Table 4, tissue prep'n Homogenate, read-out: [3H]BTX-B binding Mean (IC50: μM).
[9] abbreviates: Table 4, tissue prep'n Synaptosomes, read-out: [3H]BTX-B binding Mean (IC50: μM).
Where [10] appears, read: Table 3, rat forebrain synaptosomes, read-out: [14C]guanidine flux Mean (IC50: μM).
[11] abbreviates: Table 5, Synaptosome data, read-out: [3H]BTX-B IC50.
[12] abbreviates: Table 5, read-out: [14C]guanidine flux IC50.
Where [13] appears, read: hERG / [3H]BTX-B selectivity, ratio of extrapolated hERG IC50 to [3H]BTX-B IC50 (synaptosomes).
Setting [14] is: hERG / [14C]guanidine flux selectivity, ratio of extrapolated hERG IC50 to [14C]guanidine flux IC50.
Setting [15] is: Table 8, read-out: IC50 (μM) (uptake of [14C]guanidine).

As usually defined, the melting point is the temperature, or range, at which the solid turns liquid. Usually inhibition stands for the drop in the measured response relative to a control, in per cent. Usually IC50 stands for the point on the concentration scale where inhibition reaches its midpoint. One may read the EC50 as the concentration giving half of the maximal effect.

Structures are written as SMILES. Several values for one entry are separate records, joined by “and”; a condition that tells them apart may be missing. Identical values can stand only once. Counter-ions that a name gives are not always drawn. Like-named read-outs stand apart in the source and are kept apart here.

T1 sequence (Q12809 whole entry): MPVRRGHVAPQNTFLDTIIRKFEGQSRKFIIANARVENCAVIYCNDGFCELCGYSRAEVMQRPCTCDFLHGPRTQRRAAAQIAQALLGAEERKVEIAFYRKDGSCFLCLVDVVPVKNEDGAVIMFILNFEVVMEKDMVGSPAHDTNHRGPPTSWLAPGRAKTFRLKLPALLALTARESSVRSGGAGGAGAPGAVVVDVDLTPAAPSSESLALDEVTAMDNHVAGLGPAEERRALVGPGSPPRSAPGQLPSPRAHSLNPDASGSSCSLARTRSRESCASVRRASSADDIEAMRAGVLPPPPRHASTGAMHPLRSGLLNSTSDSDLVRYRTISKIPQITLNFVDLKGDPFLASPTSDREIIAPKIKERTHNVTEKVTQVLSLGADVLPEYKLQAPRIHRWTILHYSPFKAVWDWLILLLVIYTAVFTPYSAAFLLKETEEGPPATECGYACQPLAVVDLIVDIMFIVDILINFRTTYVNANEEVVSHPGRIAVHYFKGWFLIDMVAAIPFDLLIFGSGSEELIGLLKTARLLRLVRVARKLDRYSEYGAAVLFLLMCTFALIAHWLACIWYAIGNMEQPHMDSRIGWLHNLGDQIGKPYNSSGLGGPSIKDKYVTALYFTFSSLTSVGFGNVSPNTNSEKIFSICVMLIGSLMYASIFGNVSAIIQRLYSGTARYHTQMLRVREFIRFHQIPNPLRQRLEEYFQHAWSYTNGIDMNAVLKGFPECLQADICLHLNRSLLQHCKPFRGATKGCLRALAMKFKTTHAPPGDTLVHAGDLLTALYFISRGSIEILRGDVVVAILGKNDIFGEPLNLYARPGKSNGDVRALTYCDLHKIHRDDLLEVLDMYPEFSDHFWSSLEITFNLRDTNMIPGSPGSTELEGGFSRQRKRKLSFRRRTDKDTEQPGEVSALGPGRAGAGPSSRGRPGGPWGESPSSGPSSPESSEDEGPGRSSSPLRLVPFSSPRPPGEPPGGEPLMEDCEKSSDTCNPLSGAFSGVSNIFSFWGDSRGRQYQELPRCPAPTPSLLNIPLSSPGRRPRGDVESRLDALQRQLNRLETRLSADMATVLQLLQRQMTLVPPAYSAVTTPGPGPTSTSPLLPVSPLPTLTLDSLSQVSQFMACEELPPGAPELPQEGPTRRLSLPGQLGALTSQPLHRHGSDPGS

`Cn1nc(-c2ccc(Cl)cc2Cl)c(N)nc1=N` (as salt: methanesulfonate) [Example 45, 5(3)-Amino-6-(2,4-dichlorophenyl)-2,3(2,5)-dihydro-3(5)-imino-2-methyl-1,2,4-triazine methanesulfonate]: the melting point lay within 283 to 285 °C.
`Cn1nc(-c2ccccc2)c(N)nc1=N` (as salt: methanesulfonate) [Example 46, 5(3)-Amino-6-phenyl-2,3(2,5)-dihydro-3(5)-imino-2-methyl-1,2,4-triazine methanesulfonate] showed a melting point of 230 to 232 °C.
The compound `CCn1nc(-c2ccccc2)c(N)nc1=N` (as salt: methanesulfonate) [Example 47, 5(3)-Amino-6-phenyl-2,3(2,5)-dihydro-3(5)-imino-2-ethyl-1,2,4-triazine methanesulfonate] had a melting point of 230 to 232 °C.
As for `Cn1nc(-c2cc(Cl)ccc2Cl)c(N)nc1=N` (as salt: methanesulfonate) [Example 48, 5(3)-Amino-6-(2,5-dichlorophenyl)-2,3(2,5)-dihydro-3(5)-imino-2-methyl-1,2,4-triazine methanesulfonate], the melting point was 297 to 298 °C.
Still for that read-out and setting: in the case of `CCn1nc(-c2cc(Cl)ccc2Cl)c(N)nc1=N` (as salt: methanesulfonate) [Example 49, 5(3)-Amino-6-(2,5-dichlorophenyl)-2,3(2,5)-dihydro-3(5)-imino-2-ethyl-1,2,4-triazine methanesulfonate] it was 264 to 265 °C; in that of `Cn1nc(-c2cc(Cl)cc(Cl)c2)c(N)nc1=N` (as salt: methanesulfonate) [Example 53, 5(3)-Amino-6-(3,5-dichlorophenyl)-2,3(2,5)-dihydro-3(5)-imino-2-methyl-1,2,4-triazine methanesulfonate], 234 to 236 °C; in that of `CCn1nc(-c2cc(Cl)cc(Cl)c2)c(N)nc1=N` (as salt: methanesulfonate) [Example 54, 5(3)-Amino-6-(3,5-dichlorophenyl)-2,3(2,5)-dihydro-3(5)-imino-2-ethyl-1,2,4-triazine methanesulfonate], 217 to 219 °C.
Compound `N=c1nc(N)c(-c2cc(Cl)cc(Cl)c2Cl)nn1CCF` (as salt: methanesulfonate) [Example 55, 5(3)-Amino-6-(2,3,5-trichlorophenyl)-2,3(2,5)-dihydro-3(5)-imino-2-(2-fluoroethyl)-1,2,4-triazine methanesulfonate] had a melting point of 212 to 214 °C.
As to `CC(C)n1nc(-c2cccc(Cl)c2Cl)c(N)nc1=N` [Example 4, 5(3)-Amino-6-(2,3-dichlorophenyl)-2,3(2,5)-dihydro-3(5)-imino-2-isopropyl-1,2,4-triazine], on hERG potassium channel [1] (human), the “hERG / [14C]guanidine flux selectivity” value is listed as 6.7. For the same compound, the inhibition at 10 µM against hERG potassium channel [2] (hERG % inhibition @ 10 μM) is 35%; in data set [5] (assay concentration 10 μM), -1%. The selectivity ratio on hERG potassium channel [2] (hERG / [14C]guanidine flux selectivity) was found to be 6.6. Also, the IC50 was 18.6 µM and 19.4 µM at hERG potassium channel [3]; 0.6 µM in the data set on sodium channel [4] (setting [8]); 1.5 µM in the data set on sodium channel [4] (setting [9]); 4 µM in the data set with sodium channel [6] (setting [10]). For the same compound, the inhibition at 99 µM in data set [5] was 0%.
As to `N=c1nc(N)c(-c2cccc(Cl)c2Cl)nn1CCO` [Example 5, 5(3)-Amino-6-(2,3-dichlorophenyl)-2,3(2,5)-dihydro-3(5)-imino-2-(2-hydroxyethyl)-1,2,4-triazine], the IC50 worked out at 7.2 µM on hERG potassium channel [1]; 7.2 µM in the data set on sodium channel [4] (setting [8]); 25.7 µM in the data set with sodium channel [4] (setting [9]); 1.7 µM with sodium channel [4] (setting [11]); 172 µM in the data set with sodium channel [6] (setting [10]); 2.1 µM in the data set with sodium channel [6] (setting [12]). In addition, at hERG potassium channel [1], the “hERG / [14C]guanidine flux selectivity” value was determined as 3.5. Also, the “hERG / [3H]BTX-B selectivity” value on hERG potassium channel [3] (ratio of extrapolated hERG IC50 to [3H]BTX-B IC50 (synaptosomes)) was 4.3. The “[3H]methotrexate binding Inhibition (% @ assay conc'n)” value in data set [5] (assay concentration 10 μM) is recorded as −1%; in data set [5] (assay concentration 101 μM) it was 1%.
The compound `COc1ccc(Cn2nc(-c3cccc(Cl)c3Cl)c(N)nc2=N)cc1` [Example 19, 5(3)-Amino-6-(2,3-dichlorophenyl)-2,3(2,5)-dihydro-3(5)-imino-2-(4-methoxy)phenylmethyl-1,2,4-triazine] registered a melting point of 212 to 215 °C. Also, the inhibition at 10 µM in data set [5] (assay concentration 10 μM) is -2%. In data set [5], the inhibition at 99 µM is -3%. Further, in the data set with sodium channel [6] (setting [10]), the IC50 is 5 µM.
`Cn1nc(-c2cc(Cl)cc(Cl)c2Cl)c(N)nc1=N` [Example 32, 5(3)-Amino-6-(2,3,5-trichlorophenyl)-2,3(2,5)-dihydro-3(5)-imino-2-methyl-1,2,4-triazine]: the Emax in data set [7] worked out at 65 ± 7%. Moreover, the EC50 in data set [7] stood at 5.9 µM. Also, the inhibition at 10 µM on hERG potassium channel [2] turned out to be 33%. Also, the selectivity ratio at hERG potassium channel [2] (setting [13]) was 10.7; at hERG potassium channel [2] (setting [14]), 3.2. Also, the IC50 is 20.3 µM at hERG potassium channel [3]; 1.9 µM in the data set on sodium channel [4] (setting [9]); 1.9 µM in the data set with sodium channel [4] (setting [11]); more than 250 µM in data set [5]; 6.4 µM in the data set with sodium channel [6] (setting [10]); 6.4 µM with sodium channel [6] (setting [12]).
Turning to `CCCn1nc(-c2cc(Cl)cc(Cl)c2Cl)c(N)nc1=N` [Example 34, 5(3)-Amino-6-(2,3,5-trichlorophenyl)-2,3(2,5)-dihydro-3(5)-imino-2-propyl-1,2,4-triazine], the Emax in data set [7] was found to be 37%. The EC50 in data set [7] amounted to 9.8 µM. In addition, the inhibition at 10 µM against hERG potassium channel [2] was 62%. Moreover, the selectivity ratio on hERG potassium channel [2] (setting [13]) was 12.3; on hERG potassium channel [2] (setting [14]) it was 4.7. Besides, the IC50 was 6.1 µM on hERG potassium channel [3]; 0.5 µM with sodium channel [4] (setting [9]); 0.5 µM in the data set on sodium channel [4] (setting [11]); more than 300 µM in data set [5]; 1.3 µM with sodium channel [6] (setting [10]); 1.3 µM with sodium channel [6] (setting [12]).
The compound `Nc1nnc(-c2cccc(F)c2Cl)c(N)n1` [Example 40, 2-chloro-3-fluorophenyl-1,2,4-triazine-3,5-diamine] came in with a melting point of 244 to 246 °C. Further, the 50% inhibitory concentration (IC50) with sodium channel [4] (setting [9]) turned out to be 283 µM. For the same compound, in data set [5], the IC50 was determined as 589 µM. Also, in the data set with sodium channel [6] (setting [10]), the IC50 was found to be 834 µM.
`Nc1nnc(-c2cc(Cl)ccc2Cl)c(N)n1` [Example 41, 3,5-Diamino-6-(2,5-dichlorophenyl)-1,2,4-triazine]: the melting point lay within 228 to 230 °C. The inhibition at 50 µM in data set [5] was 93%. For the same compound, in the data set with sodium channel [6] (setting [10]), the IC50 was found to be 525 µM.
On to `Nc1nnc(-c2cc(Cl)cc(Cl)c2)c(N)n1` [Example 42, 3,5-Diamino-6-(3,5-dichlorophenyl)-1,2,4-triazine], for which the melting point fell in the range of 223 to 225 °C. Moreover, in data set [5], the inhibition at 50 µM was 99%. The half-inhibitory concentration (IC50) in the data set with sodium channel [6] (setting [10]) was 155 µM.
Consider `CCn1nc(-c2cc(Cl)cc(Cl)c2Cl)c(N)nc1=N` [Example 50], for which the melting point was in the range of 269 to 271 °C. For the same compound, in the data set with sodium channel [6] (Table 8), the “pIC50 (uptake of [14C]guanidine)” value was 5.52 ± 0.03 and the “Hill (uptake of [14C]guanidine)” value turned out to be 0.93. For the same compound, in the data set on sodium channel [6] (setting [15]), the IC50 was found to be 3 µM.
`Nc1nnc(-c2ccccc2OC(F)(F)F)c(N)n1` [Example 51, 3,5-Diamino-6-(2-trifluoromethoxyphenyl)-1,2,4-triazine]: the melting point was 148 to 150 °C. In the data set with sodium channel [6] (Table 8), the “pIC50 (uptake of [14C]guanidine)” value came to 2.76 ± 0.11 and the “Hill (uptake of [14C]guanidine)” value is on record as 1.22. For the same compound, the IC50 in the data set on sodium channel [6] (setting [15]) stood at 1740 µM.
